From ChEMBL document CHEMBL4393743, “Anti-tumor activity evaluation of novel tubulin and HDAC dual-targeting inhibitors” (Bioorg Med Chem Lett, 2019)

Tests used:
A549 [1] = experiment: Induction of cell cycle arrest in human A549 cells assessed as accumulation at G2/M phase incubated for 36 hrs by propidium iodide staining based flow cytometry; format: functional
A549 [2] = experiment: Induction of apoptosis in human A549 cells assessed as late apoptotic cells at 1 uM incubated for 72 hrs by Annexin V-FITC/propidium iodide-staining based flow cytometric analysis (reference value: 5.69%); format: functional
A549 [3] = experiment: Induction of cell cycle arrest in human A549 cells assessed as accumulation at G0/G1 phase at 1 uM incubated for 36 hrs by propidium iodide staining based flow cytometry (reference value: 72.51%); format: functional
A549 [4] = experiment: Induction of apoptosis in human A549 cells assessed as necrotic cells at 0.1 uM incubated for 72 hrs by Annexin V-FITC/propidium iodide-staining based flow cytometric analysis (reference value: 2.76%); format: functional
[5] = molecular target: Histone deacetylase (Homo sapiens) (UniProt Q13547+O15379+Q9UBN7+Q92769+Q9UQL6+Q8WUI4+Q9BY41+Q96DB2+P56524+Q9UKV0+Q969S8); details: HeLa, at 1 µM
Description: Inhibition of HDAC in human HeLa cell nuclear extracts at 1 uM

HeLa = experiment: Antiproliferative activity against human HeLa cells assessed as cell growth inhibition incubated for 72 hrs by MTT assay; format: functional, cell-based
A549 [6] = experiment: Induction of cell cycle arrest in human A549 cells assessed as accumulation at G2/M phase at 0.1 uM incubated for 36 hrs by propidium iodide staining based flow cytometry (reference value: 10.83%); format: functional
NCI-H226 = experiment: Antiproliferative activity against human NCI-H226 cells assessed as cell growth inhibition incubated for 72 hrs by MTT assay; format: functional, cell-based; details: NCI-H226, 72 h
A549 [7] = experiment: Induction of cell cycle arrest in human A549 cells assessed as accumulation at G2/M phase at 1 uM incubated for 36 hrs by propidium iodide staining based flow cytometry (reference value: 10.83%); format: functional
A549 [8] = experiment: Induction of cell cycle arrest in human A549 cells assessed as accumulation at G2/M phase at 3 uM incubated for 36 hrs by propidium iodide staining based flow cytometry (reference value: 10.83%); format: functional
A549 [9] = experiment: Induction of apoptosis in human A549 cells assessed as live cells at 10 uM incubated for 72 hrs by Annexin V-FITC/propidium iodide-staining based flow cytometric analysis (reference value: 89.8%); format: functional
MGC-803 = experiment: Antiproliferative activity against human MGC803 cells assessed as cell growth inhibition incubated for 72 hrs by MTT assay; format: functional, cell-based; details: MGC-803, 72 h
MCF7 = experiment: Antiproliferative activity against human MCF7 cells assessed as cell growth inhibition incubated for 72 hrs by MTT assay; format: functional, cell-based; details: MCF7, 72 h
Histone deacetylase 8 = molecular target: T1, Histone deacetylase 8 (Homo sapiens, UniProt Q9BY41); experiment: Inhibition of HDAC8 (unknown origin) using Boc-Lys(Ac)-AMC as substrate incubated for 60 mins by fluorescence assay
T1 sequence (Q9BY41 whole entry): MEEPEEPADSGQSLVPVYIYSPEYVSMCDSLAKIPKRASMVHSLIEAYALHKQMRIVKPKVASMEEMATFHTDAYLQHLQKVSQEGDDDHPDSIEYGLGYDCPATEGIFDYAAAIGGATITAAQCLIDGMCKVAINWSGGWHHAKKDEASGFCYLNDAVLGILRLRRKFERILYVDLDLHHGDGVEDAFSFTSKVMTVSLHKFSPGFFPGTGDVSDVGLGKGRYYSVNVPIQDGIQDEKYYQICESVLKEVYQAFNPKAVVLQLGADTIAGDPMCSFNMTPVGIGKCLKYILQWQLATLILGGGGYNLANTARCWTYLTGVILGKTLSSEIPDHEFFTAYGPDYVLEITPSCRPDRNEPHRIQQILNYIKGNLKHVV

MDA-MB-231 = experiment: Antiproliferative activity against human MDA-MB-231 cells assessed as cell growth inhibition incubated for 72 hrs by MTT assay; format: functional, cell-based; details: MDA-MB-231, 72 h
[10] = molecular target: T2, Protein deacetylase HDAC6 (Homo sapiens, UniProt Q9UBN7); experiment: Inhibition of HDAC6 (unknown origin) using Boc-Lys(Ac)-AMC as substrate incubated for 60 mins by fluorescence assay
T2 sequence (Q9UBN7 whole entry): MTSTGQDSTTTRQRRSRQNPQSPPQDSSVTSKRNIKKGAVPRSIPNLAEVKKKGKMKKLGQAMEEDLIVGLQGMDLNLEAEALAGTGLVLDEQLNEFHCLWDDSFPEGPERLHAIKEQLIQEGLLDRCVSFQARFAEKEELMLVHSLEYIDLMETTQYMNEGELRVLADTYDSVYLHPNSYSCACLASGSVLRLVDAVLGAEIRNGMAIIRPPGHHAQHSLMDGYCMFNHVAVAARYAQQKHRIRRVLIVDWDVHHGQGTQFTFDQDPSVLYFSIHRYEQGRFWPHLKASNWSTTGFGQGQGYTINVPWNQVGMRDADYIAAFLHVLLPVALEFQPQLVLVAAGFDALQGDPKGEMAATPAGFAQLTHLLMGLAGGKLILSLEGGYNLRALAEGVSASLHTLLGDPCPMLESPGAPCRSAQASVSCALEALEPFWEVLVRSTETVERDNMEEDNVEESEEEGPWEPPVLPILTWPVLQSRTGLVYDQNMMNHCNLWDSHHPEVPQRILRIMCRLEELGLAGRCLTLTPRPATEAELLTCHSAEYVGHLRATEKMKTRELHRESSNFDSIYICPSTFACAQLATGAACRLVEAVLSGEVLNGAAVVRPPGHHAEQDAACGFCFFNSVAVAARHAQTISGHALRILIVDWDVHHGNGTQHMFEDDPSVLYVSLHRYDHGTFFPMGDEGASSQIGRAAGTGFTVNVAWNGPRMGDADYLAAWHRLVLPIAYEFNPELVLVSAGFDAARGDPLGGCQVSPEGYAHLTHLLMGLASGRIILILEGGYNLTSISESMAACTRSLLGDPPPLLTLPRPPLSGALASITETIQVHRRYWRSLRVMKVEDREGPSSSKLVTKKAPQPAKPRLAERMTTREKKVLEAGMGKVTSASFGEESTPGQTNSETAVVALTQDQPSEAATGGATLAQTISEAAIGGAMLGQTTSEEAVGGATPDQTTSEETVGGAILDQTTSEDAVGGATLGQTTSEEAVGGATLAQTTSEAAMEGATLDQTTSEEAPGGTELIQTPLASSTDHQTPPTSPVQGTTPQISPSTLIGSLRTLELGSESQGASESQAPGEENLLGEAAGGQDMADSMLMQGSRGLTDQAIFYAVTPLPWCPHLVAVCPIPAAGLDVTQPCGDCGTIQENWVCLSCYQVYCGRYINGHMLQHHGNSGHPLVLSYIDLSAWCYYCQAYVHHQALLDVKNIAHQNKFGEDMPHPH

A549 [11] = experiment: Induction of apoptosis in human A549 cells assessed as live cells at 0.1 uM incubated for 72 hrs by Annexin V-FITC/propidium iodide-staining based flow cytometric analysis (reference value: 89.8%); format: functional
A549 [12] = experiment: Induction of apoptosis in human A549 cells assessed as late apoptotic cells at 0.3 uM incubated for 72 hrs by Annexin V-FITC/propidium iodide-staining based flow cytometric analysis (reference value: 5.69%); format: functional

inhibition [5]: 19.9% | IC50 (HeLa): 0.89 µM | IC50 (NCI-H226): 7.54 µM | IC50 (MGC-803): 3.66 µM | IC50 (MCF7): 7.33 µM | IC50 (Histone deacetylase 8): 1.7 µM | IC50 (MDA-MB-231): 6.95 µM | IC50 [10]: 0.47 µM
Compound: COc1ccc(/C=C(\C)C(=O)c2cc(OC)c(OC)c(OC)c2)cc1OCCCC(=O)NO
Activity (A549 [1]): Dose-dependent effect | Activity (A549 [2]): 26.4% | Activity (A549 [3]): 16.57% | Activity (A549 [4]): 1.51% | Activity (A549 [6]): 9.47% | Activity (A549 [7]): 62.89% | Activity (A549 [8]): 80.69% | Activity (A549 [9]): 54.7% | Activity (A549 [11]): 84.8% | Activity (A549 [12]): 10.1%
